In US10570122B2, “Compounds with anti-tumoral activity” (AB Science, priority 2015, dated 2020):

Tests used:
SW579 = test: CellTiter-Blue cell-based survival/proliferation assay, SW579; conditions: Homo sapiens; SW579 head & neck tumor cell line, 48 h
How it was run: (§1)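 Tenfold compound dilutions (0–10 μM) were added to 1·10^4 cells/well. Plates incubated 48 h at 37 °C. CellTiter-Blue reduction (4 h, 37 °C) was read as fluorescence at 590 nm, background-corrected with a cell-free blank.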

AGS = test: CellTiter-Blue cell-based survival/proliferation assay, AGS; conditions: Homo sapiens; AGS stomach tumor cell line, 48 h
How it was run: as §1

BT20 = test: CellTiter-Blue cell-based survival/proliferation assay, BT20; conditions: Homo sapiens, BT-20; BT20 breast tumor cell line, 48 h
How it was run: as §1

ACHN = test: CellTiter-Blue cell-based survival/proliferation assay, ACHN; conditions: Homo sapiens; ACHN kidney tumor cell line, 48 h
How it was run: as §1

MDAMB231 = test: CellTiter-Blue cell-based survival/proliferation assay, MDAMB231; conditions: Homo sapiens, MDA-MB-231; MDAMB231 breast tumor cell line, 48 h
How it was run: as §1

BXPC3 = test: CellTiter-Blue cell-based survival/proliferation assay, BXPC3; conditions: Homo sapiens, BXPC-3; BXPC3 pancreas tumor cell line, 48 h
How it was run: as §1

[1] = tested on: panel of about 34 human tumor cell lines; test: Cell-based proliferation screening on panel of tumor cell lines; conditions: solid tumor cell line, cell line unknown, 48 h, read-out: IC50, solid tumor cell line of column 6 (last section of Table 3)
How it was run: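 CellTiter-Blue survival assay with 1·10^4 cells/well, each line treated 48 h at 37° C with 1/10 serial dilutions from 0 to 10 μM. Resorufin formed during a 4 h reagent incubation is read by fluorescence at 590 nm. A cell-free blank serves as background.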

OPM2 = test: CellTiter-Blue cell-based survival/proliferation assay, OPM2; conditions: Homo sapiens, OPM-2, Myeloma cell line OPM2, 48 h, read-out: Anti-tumoral activity (measured IC50) OPM2
How it was run: as §1

CLS354 = test: CellTiter-Blue cell-based survival/proliferation assay, CLS354; conditions: Homo sapiens, CLS-354; CLS354_4 head & neck tumor cell line, 48 h
How it was run: as §1

HL60 = test: CellTiter-Blue cell-based survival/proliferation assay, HL60; conditions: Homo sapiens, HL-60, Leukemia cell line HL60, 48 h, read-out: Anti-tumoral activity (measured IC50) HL60
How it was run: as §1

PANC1 = test: CellTiter-Blue cell-based survival/proliferation assay, PANC1; conditions: Homo sapiens, PANC-1; PANC_1 pancreas tumor cell line, 48 h
How it was run: as §1

PC3 = test: CellTiter-Blue cell-based survival/proliferation assay, PC3; conditions: Homo sapiens, PC-3; PC3 prostate tumor cell line, 48 h
How it was run: as §1

CALU6 = test: CellTiter-Blue cell-based survival/proliferation assay, CALU6; conditions: Homo sapiens, Calu-6; CALU6 lung tumor cell line, 48 h
How it was run: as §1

A549 = test: CellTiter-Blue cell-based survival/proliferation assay, A549; conditions: Homo sapiens; A549 lung tumor cell line, 48 h
How it was run: as §1

HEP2 = test: CellTiter-Blue cell-based survival/proliferation assay, HEP2; conditions: Homo sapiens, HEp-2; HEP2 head & neck tumor cell line, 48 h
How it was run: as §1

TOV112D = test: CellTiter-Blue cell-based survival/proliferation assay, TOV112D; conditions: Homo sapiens; TOV112D ovary tumor cell line, 48 h
How it was run: as §1

A498 = test: CellTiter-Blue cell-based survival/proliferation assay, A498; conditions: Homo sapiens; A498 kidney tumor cell line, 48 h
How it was run: as §1

REC1 = test: CellTiter-Blue cell-based survival/proliferation assay, REC1; conditions: Homo sapiens, Lymphoma cell line REC1, 48 h, read-out: Anti-tumoral activity (measured IC50) REC1
Protocol: (§2) Cell-Based Proliferation Screening of Compounds
(§3) CellTiter-Blue cell-based survival/proliferation assay (Promega G8080) was performed on tumor cell lines. A total of 1·10^4 cells/well/50 μl were seeded in a 96-wells plate. Treatment was initiated by addition of a 2× drug solution of 1/10 serial dilutions ranging from 0 to 10 μM. Cells were grown for 48 h at 37° C. and then incubated with 10 μl/well of Promega CellTiter-Bleue reagent for 4 h at 37° C. The amount of resorufin dye formed was quantified by its fluorescence emission at 590 nm using a scanning multiwell spectrophotometer (OPTIMA, BMG labtech, France). A blank well without cells was used as a background control for the spectrophotometer.

PLCPRF5 = test: CellTiter-Blue cell-based survival/proliferation assay, PLCPRF5; conditions: Homo sapiens, PLC-PRF-5; PLC_PRF5 liver tumor cell line, 48 h
How it was run: as §1

DLD1 = test: CellTiter-Blue cell-based survival/proliferation assay, DLD1; conditions: Homo sapiens, DLD-1; DLD_1 colorectal tumor cell line, 48 h
How it was run: as §1

HEPG2 = test: CellTiter-Blue cell-based survival/proliferation assay, HEPG2; conditions: Homo sapiens; HEPG2 liver tumor cell line, 48 h
How it was run: as §1

HUT78 = test: CellTiter-Blue cell-based survival/proliferation assay, HUT78; conditions: Homo sapiens, Lymphoma cell line HUT78, 48 h, read-out: Anti-tumoral activity (measured IC50) HUT78
Protocol: as §2, §3

HCT116 = test: CellTiter-Blue cell-based survival/proliferation assay, HCT116; conditions: Homo sapiens, HCT-116; HCT116 colorectal tumor cell line, 48 h
How it was run: as §1

KARPAS299 = test: CellTiter-Blue cell-based survival/proliferation assay, KARPAS299; conditions: Homo sapiens, KARPAS-299, Lymphoma cell line KARPAS299, 48 h, read-out: Anti-tumoral activity (measured IC50) KARPAS299
Protocol: as §2, §3

DU145 = test: CellTiter-Blue cell-based survival/proliferation assay, DU145; conditions: Homo sapiens, DU-145; DU145 prostate tumor cell line, 48 h
How it was run: as §1

HGC27 = test: CellTiter-Blue cell-based survival/proliferation assay, HGC27; conditions: Homo sapiens, HGC-27; HGC27 stomach tumor cell line, 48 h
How it was run: as §1

MESSA = test: CellTiter-Blue cell-based survival/proliferation assay, MESSA; conditions: Homo sapiens, MES-SA; MESSA ovary tumor cell line, 48 h
How it was run: as §1

H1299 = test: CellTiter-Blue cell-based survival/proliferation assay, H1299; conditions: Homo sapiens, NCI-H1299; H1299 lung tumor cell line, 48 h
How it was run: as §1

| SMILES | IC50 (SW579) [µM] | IC50 (AGS) [µM] | IC50 (BT20) [µM] | IC50 (ACHN) [µM] | IC50 (MDAMB231) [µM] | IC50 (BXPC3) [µM] | IC50 [1] [µM] | IC50 (OPM2) [µM] | IC50 (CLS354) [µM] | IC50 (HL60) [µM] | IC50 (PANC1) [µM] | IC50 (PC3) [µM] | IC50 (CALU6) [µM] | IC50 (A549) [µM] | IC50 (HEP2) [µM] | IC50 (TOV112D) [µM] | IC50 (A498) [µM] | IC50 (REC1) [µM] | IC50 (PLCPRF5) [µM] | IC50 (DLD1) [µM] | further results |
| --- | --- | --- | --- | --- | --- | --- | --- | --- | --- | --- | --- | --- | --- | --- | --- | --- | --- | --- | --- | --- | --- |
| Cc1ccc(CO)cc1Nc1ncc(-c2ccc(-n3cccn3)cc2)o1 [Example 027, {4-Methyl-3-[5-(4-pyrazol-1-yl-phenyl)-oxazol-2-ylamino]-phenyl}-methanol] | > 1 | > 1 | > 1 | > 1 | > 1 | > 1 | > 1 | > 1 | > 1 | > 1 | > 1 | > 1 | > 1 | > 1 | > 1 | > 1 | > 1 | > 1 | > 1 | > 1 | IC50 (HEPG2): > 1 µM; IC50 (HUT78): > 1 µM; IC50 (HCT116): > 1 µM; IC50 (KARPAS299): > 1 µM; IC50 (DU145): > 1 µM; IC50 (HGC27): > 1 µM; IC50 (MESSA): > 1 µM; IC50 (H1299): > 1 µM |
| Cc1ccc(OCCN2CCOCC2)cc1Nc1ncc(-c2ccc(-n3cccn3)cc2)o1 [Example 029, [2-Methyl-5-(2-morpholin-4-yl-ethoxy)-phenyl]-[5-(4-pyrazol-1-yl-phenyl)-oxazol-2-yl]-amine] | > 1 | > 1 | > 1 | > 1 | > 1 | > 1 | > 1 | > 1 | > 1 | > 1 | > 1 | > 1 | > 1 | > 1 | > 1 | > 1 | > 1 | > 1 | > 1 | > 1 | IC50 (HEPG2): > 1 µM; IC50 (HUT78): > 1 µM; IC50 (HCT116): > 1 µM; IC50 (KARPAS299): > 1 µM; IC50 (DU145): > 1 µM; IC50 (HGC27): > 1 µM; IC50 (MESSA): > 1 µM; IC50 (H1299): > 1 µM |
| Cc1ccc(OCCN(C)C)cc1Nc1ncc(-c2ccc(-n3cccn3)cc2)o1 [Example 030, [5-(2-Dimethylamino-ethoxy)-2-methyl-phenyl]-[5-(4-pyrazol-1-yl-phenyl)-oxazol-2-yl]-amine] | > 1 | > 1 | > 1 | > 1 | > 1 | > 1 | > 1 | > 1 | > 1 | > 1 | > 1 | > 1 | > 1 | > 1 | > 1 | > 1 | > 1 | > 1 | > 1 | > 1 | IC50 (HEPG2): > 1 µM; IC50 (HUT78): > 1 µM; IC50 (HCT116): > 1 µM; IC50 (KARPAS299): > 1 µM; IC50 (DU145): > 1 µM; IC50 (HGC27): > 1 µM; IC50 (MESSA): > 1 µM; IC50 (H1299): > 1 µM |
| CNC(=O)c1ccc(C)c(Nc2ncc(-c3ccc(-n4cccn4)cc3)o2)c1 [Example 031, 4,N-Dimethyl-3-[5-(4-pyrazol-1-yl-phenyl)-oxazol-2-ylamino]-benzamide] | > 1 | > 1 | > 1 | > 1 | > 1 | > 1 | > 1 | > 1 | > 1 | > 1 | > 1 | > 1 | > 1 | > 1 | > 1 | > 1 | > 1 | > 1 | > 1 | > 1 | IC50 (HEPG2): > 1 µM; IC50 (HUT78): > 1 µM; IC50 (HCT116): > 1 µM; IC50 (KARPAS299): 0.1 to 0.5 µM; IC50 (DU145): > 1 µM; IC50 (HGC27): > 1 µM; IC50 (MESSA): > 1 µM; IC50 (H1299): > 1 µM |
| Cc1ccc(C(=O)NCCN2CCN(C)CC2)cc1Nc1ncc(-c2ccc(-n3cccn3)cc2)o1 [Example 032, 4-Methyl-N-[2-(4-methyl-piperazin-1-yl)-ethyl]-3-[5-(4-pyrazol-1-yl-phenyl)-oxazol-2-ylamino]-benzamide] | > 1 | > 1 | > 1 | > 1 | > 1 | > 1 | > 1 | > 1 | > 1 | > 1 | > 1 | > 1 | > 1 | > 1 | > 1 | > 1 | > 1 | > 1 | > 1 | > 1 | IC50 (HEPG2): > 1 µM; IC50 (HUT78): > 1 µM; IC50 (HCT116): > 1 µM; IC50 (KARPAS299): > 1 µM; IC50 (DU145): > 1 µM; IC50 (HGC27): > 1 µM; IC50 (MESSA): > 1 µM; IC50 (H1299): > 1 µM |
